# Values of other authors as cited in patent publication US20210259278A1, “CHEWING GUM CONTAINING VITAMIN C” (priority 2018, published 2021).
# Test system: nausea in humans
smiles,measurement,setting,value
"O=C1O[C@H]([C@@H](O)CO)C(O)=C1O [vitamin C, L-(+)-ascorbic acid]",treatment of nausea,"administration of vitamin C, for example in connection with seasickness",found to be effective
same,prevention of the occurrence of nausea in all test subjects,vitamin C alone,could not reliably prevent the occurrence of nausea in all test subjects
